The nature of this data set: Thermogravimetric analysis (TGA) of the crystal forms. The data set is classed as physicochemical. The procedure: 4) TGA method Instrument model: Netzsch TG 209F3, temperature range 30-400° C., scan rate 10K/min, purge gas flow rate 25 mL/min, shielding gas flow rate 15 mL/min.

For `CNCc1ccc(-c2cc3cc(F)cc(C(N)=O)c3o2)cc1.Cl` [crystal form A, 2-[4-(methylaminomethyl)phenyl]-5-fluoro-benzofuran-7-carboxamide hydrochloride], the thermal stability result (conclusion from the DSC/TG experimental results) is reported as “good thermal stability”. For the molecule `CNCc1ccc(-c2cc3cc(F)cc(C(N)=O)c3o2)cc1.Cl` [crystal form C, 2-[4-(methylaminomethyl)phenyl]-5-fluoro-benzofuran-7-carboxamide hydrochloride], the “temperature at which the crystal form begins to decompose according to the thermogravimetric analysis” value (TG, 30-400° C., scan rate 10K/min) amounted to 250±20 °C.

The record behind these values is patent US11174237B2, “2-[4-(meihylaminomethyl)phenyl]-5-fluoro- benzofuran-7-carboxamide hydrochloride polymorph, preparation method therefor and application thereof” (SHANGHAI INSTITUTE OF MATERIA MEDICA, CHINESE ACADEMY OF …, priority 2017, dated 2021).
